Test results published in ChEMBL document CHEMBL1158490, “Discovery of leukotriene A4 hydrolase inhibitors using metabolomics biased fragment crystallography” (J Med Chem, 2009).

Target: T1, Leukotriene A-4 hydrolase (Homo sapiens, UniProt P09960)
T1 sequence (P09960 whole entry): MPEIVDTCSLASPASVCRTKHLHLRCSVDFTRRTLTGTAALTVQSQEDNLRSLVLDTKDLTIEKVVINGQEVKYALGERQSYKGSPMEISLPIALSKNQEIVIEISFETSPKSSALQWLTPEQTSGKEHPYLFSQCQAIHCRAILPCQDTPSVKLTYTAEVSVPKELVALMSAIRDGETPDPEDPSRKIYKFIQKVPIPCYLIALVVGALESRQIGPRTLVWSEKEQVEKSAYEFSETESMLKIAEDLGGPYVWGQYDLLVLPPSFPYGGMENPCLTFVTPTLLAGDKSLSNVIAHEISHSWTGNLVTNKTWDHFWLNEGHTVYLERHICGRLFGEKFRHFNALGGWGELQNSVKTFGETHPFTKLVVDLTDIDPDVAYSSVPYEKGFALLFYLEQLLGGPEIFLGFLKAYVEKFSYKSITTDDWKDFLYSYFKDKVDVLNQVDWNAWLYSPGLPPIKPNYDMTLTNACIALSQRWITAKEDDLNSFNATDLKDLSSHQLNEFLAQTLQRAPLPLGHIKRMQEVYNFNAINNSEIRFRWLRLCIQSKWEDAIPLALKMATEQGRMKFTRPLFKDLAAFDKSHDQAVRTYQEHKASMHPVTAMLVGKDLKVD
Assay: Inhibition of peptidase activity of human recombinant LTA4H expressed in Escherichia coli BL21-AI/pRARE

SMILES | IC50 [µM]
CNCc1ccccc1-c1cccs1 | 1080
c1cc2cc(OCCN3CCCC3)ccc2[nH]1 | 321
OC(c1ccncc1)c1ccc(OCCN2CCCC2)cc1 (centres undefined) | 202
c1ccc(CNc2ccc(OC[C@H]3CCCN3)cc2)cc1 | 0.207
Oc1ccc2[nH]ccc2c1 | > 1000
c1ccc(NCc2cccnc2)cc1 | 1320
Oc1ccc(CCc2cc(O)cc(O)c2)cc1 [DIHYDRORESVERATROL] | 145
Fc1ccc2[nH]ccc2c1 | > 1000
O=C(O)C1CCN(CCOc2ccc3[nH]ccc3c2)CC1 | 1490
